Results: US10774049B2, “PU.1 inhibitors” (Albert Einstein College of Medicine, priority 2016, dated 2020)
Where a name gives a salt, the structure may show the parent alone.

Experiments:
LSK cells = experiment: Colony assay of Lin−Sca1+c-Kit+ (LSK) cells from wildtype mice; format: cell-based
Experimental: FIG. 5A-5F. PU.1 inhibitors decrease the granulo-monocytic potential of hematopoietic stem and progenitor cells, which is rapidly reversible. (A-C) Lin-Sca1+c-Kit+(LSK) cells were plated in semi-solid media containing PU.1 inhibitors. (A) Number of colony-forming unit granulocyte (CFU-G), monocyte (CFU-M), granulo/monocyte (CFU-GM), granulo/erythrocyte/monocyte/megakaryocyte (CFU-GEMM), burst or colony forming unit erythroid (B/CFU-E) and immature colonies after treatment. Detailed histograms of CFU-GM, CFU-G and CFU-M numbers are shown. Data represent the means±SD of 3 independent experiments. (B) Cells coming from colony assays after vehicle or DB2313 treatment. Cells were cytospun and stained with May-Grünwald Giemsa. Scale bar is equal to 20 μm. (C) FACS analysis showing the percentage of CD11b+Gr1−, CD11b+Gr1+, CD11b−Gr1+, CD41+Ter119−, CD41+Ter119+, CD41−Ter119+ populations after colony assays. Data represent the means±SD of 4 independent experiments. (D,E) Cells coming from colony assays treated with DB2313 were replated in the presence (+DB2313) or in the absence of DB2313 (−DB2313) and the percentage of CD11b+Gr1−, CD11b+Gr1+ cells was assessed one week later after culture in semi-solid media. (D) Representative FACS plots (E) Percentage of CD11b+Gr1− and CD11b+Gr1+ populations. Data represent the means±SD of 3 independent experiments; fold change compared to replating with DB2313 is shown. (F) Serial replating assay with D2313 continuous treatment (n=3). Data represent the means±SD of technical triplicate from one representative experiment. *P<0.05, **P<0.01, ***P<0.001,
In order to determine the effect of our PU.1 inhibitors on normal hematopoietic differentiation, we sorted immature Lin^−Sca1^+c-Kit^+ (LSK) cells from wildtype mice and studied their clonogenic potential following treatment with either DB1976, DB2115, or DB2313. […] Overall, the numbers of viable cells per colony were reduced upon PU.1 inhibitor treatment, again consistent with an effect of PU.1 inhibition on more mature, differentiating cells. […]

PU.1 URE−/− AML cells [1] = experiment: Colony forming capacity and serial replating of PU.1 URE−/− AML cells; format: cell-based, murine
Experimental: FIG. 2A-2F. PU.1 inhibition decreases cell growth and increases apoptosis of PU.1^1″ leukemic cells. (A) Chemical structures of heterocyclic diamidines DB1976, DB2115 and DB2313 used in this study. (B) Relative cell viability of URE−/− cells and BAF3 cells after treatment with increasing concentrations of vehicle or small molecules. Cell viability was assessed after 48 h. Data represent means of technical triplicate from one representative experiment; fold change compared to Vehicle is shown. (C) Cell proliferation assay of URE−/− after treatment with DB1976 (n=5), DB2115 (n=3), DB2313 (n=3), of MOLM13 cells (n=3), and THP1 cells (n=3). Cell counting was performed every 24 h during 4 days. Data represent means±SD of technical triplicate from one representative experiment. Forward strand: SEQ ID NO:3, and Reverse strand: SEQ ID NO:4; derived from the λB motif from the murine Ig lambda 2-4 enhancer, a known native PU.1-dependent gene and specific binding site for PU.1. (D) Clonogenic capacities of URE−/− cells after treatment with DB1976 (n=5), DB2115 (n=3) and DB2313 (n=4) in the first plating, and after serial replatings (n=3). Data represent means±SD of technical triplicate from one representative experiment. (E) Apoptotic cells (Annexin-V+Dapi−) fraction in URE−/− cells after 48 h of treatment with DB1976 (n=6), DB2115 (n=6) and DB2313 (n=3). […]

PU.1 URE−/− AML cells [2] = experiment: Transplantation of in vitro treated PU.1 URE−/− AML cells into sublethally irradiated mice; format: in vivo, mouse
Experimental: FIG. 6A-6H. Treatment with PU1 inhibitors increases survival and decreases tumor burden in vivo. (A) Experimental scheme. URE−/− cells were treated in vitro with DB2313 or Vehicle and counted after 2 days of culture. 200·10^3 viable cells per mouse were injected retroorbitally into sublethally irradiated mice. Mice were sacrificed at 6 weeks or used for survival analyses. (B) Kaplan-Meier survival analysis of transplanted mice (x animals for vehicle group, xx for DB2313 group, from 2 independent experiments, p=). (C,D) Spleen and liver weight 6 weeks after transplant (8 animals for vehicle group, 7 for DB2313 group). Data represent means±SD, each mouse is represented by an individual dot. (E) Chimerism of URE−/− cells in the bone marrow 6 weeks after transplant (14 animals per group from 2 independent experiments).
To assess the effect of PU.1 inhibitors on AML in vivo, we treated PU.1 URE^−/− AML cells for 2 days in vitro and injected 2×10^5 viable cells in sublethally irradiated recipient mice (FIG. 6A).

[3] = second plating, vs replating with compound

SMILES | toxicity on LSK cells (LSK cells; majority of colonies unidentifiable, majority of dead cells) | clonogenic capacity in serial replating, 4th and higher rounds of plating (PU.1 URE−/− AML cells [1]) | clonogenicity in serial replating, second and third rounds of plating (PU.1 URE−/− AML cells [1]) | increase of production of mature granulocytes after removing the treatment (LSK cells; [3]) | increase of production of mature monocytes after removing the treatment (LSK cells; [3]) | mean chimerism, AML cell engraftment in the bone marrow (PU.1 URE−/− AML cells [2]; 6 weeks after transplant, vehicle 55%) | splenic mean weight (PU.1 URE−/− AML cells [2]; 6 weeks post transplantation, vehicle 410 mg) | liver mean weight (PU.1 URE−/− AML cells [2]; 6 weeks post transplantation, vehicle 2,347 mg) | median latency (survival of recipient mice) (PU.1 URE−/− AML cells [2]; cells treated 2 days in vitro, vehicle 44 days) | histology: blast infiltration and disruption of splenic architecture (PU.1 URE−/− AML cells [2]; in comparison to vehicle group) | infiltration of the liver by leukemic blasts (PU.1 URE−/− AML cells [2]; in comparison to vehicle group)
N=C(N)c1ccc2nc(-c3ccc(-c4nc5ccc(C(=N)N)cc5[nH]4)[se]3)[nH]c2c1 [DB1976] | appeared to show toxicity | – | – | – | – | – | – | – | – | – | –
CC(C)NC(=N)c1ccc2nc(-c3ccc(OCc4cccc(COc5ccc(-c6nc7ccc(C(=N)NC(C)C)cc7[nH]6)cc5)c4F)cc3)[nH]c2c1 [DB2313, 3-Bis{4[4(5)-N-isopropylamidinobenzimidazolyl]phenoxymethyl]}-2-fluorobenzene tetrahydrochloride] | – | complete disruption | highly significant decrease | 4 fold | 22 fold | 33% | 243 mg | 1,548 mg | 68 days | significantly less pronounced effects | substantially reduced
